Laboratory results as given in ChEMBL document CHEMBL1157187, “Chemical synthesis of 2beta-amino-5alpha-androstane-3alpha,17beta-diol N-derivatives and their antiproliferative effect on HL-60 human leukemia cells” (Bioorg Med Chem, 2008).

Columns and labels:
[1] = system: HL-60; test: Growth inhibition of human HL60 cells at 1 uM after 3 days; format: functional; conditions: HL-60, 72 h
[2] = system: HL-60; test: Growth inhibition of human HL60 cells at 10 uM after 3 days; format: functional; conditions: HL-60, 72 h

| Compound | inhibition at 1 µM [1] [%] | inhibition at 10 µM [2] [%] |
| --- | --- | --- |
| CCCCCCCCCCCCCCCCN[C@H]1C[C@@]2(C)[C@@H](CC[C@@H]3[C@@H]2CC[C@]2(C)[C@@H](O)CC[C@@H]32)C[C@@H]1O | 0 | 94.8 |
| CCCCCN1CCN([C@H]2C[C@@]3(C)[C@@H](CC[C@@H]4[C@@H]3CC[C@]3(C)[C@@H](O)CC[C@@H]43)C[C@@H]2O)CC1 | 0 | 7.7 |
| CCCC(C)N1CCN([C@H]2C[C@@]3(C)[C@@H](CC[C@@H]4[C@@H]3CC[C@]3(C)[C@@H](O)CC[C@@H]43)C[C@@H]2O)CC1 (some centres not stated) | 0 | 9.2 |
| C[C@]12C[C@H](N3CCN(CC4CCCCC4)CC3)[C@@H](O)C[C@@H]1CC[C@@H]1[C@@H]2CC[C@]2(C)[C@@H](O)CC[C@@H]12 | 0 | 4 |
| C[C@]12C[C@H](NCC34CC5CC(CC(C5)C3)C4)[C@@H](O)C[C@@H]1CC[C@@H]1[C@@H]2CC[C@]2(C)[C@@H](O)CC[C@@H]12 | 6.4 | 85.8 |
| CC(C)CN[C@H]1C[C@@]2(C)[C@@H](CC[C@@H]3[C@@H]2CC[C@]2(C)[C@@H](O)CC[C@@H]32)C[C@@H]1O | 0 | 0 |
| CC(C)(C)N[C@H]1C[C@@]2(C)[C@@H](CC[C@@H]3[C@@H]2CC[C@]2(C)[C@@H](O)CC[C@@H]32)C[C@@H]1O | 0 | 0.5 |
| C[C@]12C[C@H](NC3CCCC3)[C@@H](O)C[C@@H]1CC[C@@H]1[C@@H]2CC[C@]2(C)[C@@H](O)CC[C@@H]12 | 0 | 0 |
| C[C@]12C[C@H](NC3CCCCC3)[C@@H](O)C[C@@H]1CC[C@@H]1[C@@H]2CC[C@]2(C)[C@@H](O)CC[C@@H]12 | 0 | 0 |
| CC(C)N[C@H]1C[C@@]2(C)[C@@H](CC[C@@H]3[C@@H]2CC[C@]2(C)[C@@H](O)CC[C@@H]32)C[C@@H]1O | 0 | 0 |
| CCCCN[C@H]1C[C@@]2(C)[C@@H](CC[C@@H]3[C@@H]2CC[C@]2(C)[C@@H](O)CC[C@@H]32)C[C@@H]1O | 0 | 3.1 |
| CCCCCCCCCCCN[C@H]1C[C@@]2(C)[C@@H](CC[C@@H]3[C@@H]2CC[C@]2(C)[C@@H](O)CC[C@@H]32)C[C@@H]1O | 0 | 96.3 |
| CCCCCN[C@H]1C[C@@]2(C)[C@@H](CC[C@@H]3[C@@H]2CC[C@]2(C)[C@@H](O)CC[C@@H]32)C[C@@H]1O | 0 | 0 |
| CC(C)(C)CN[C@H]1C[C@@]2(C)[C@@H](CC[C@@H]3[C@@H]2CC[C@]2(C)[C@@H](O)CC[C@@H]32)C[C@@H]1O | 0 | 3.3 |
| CCC(C)(C)N[C@H]1C[C@@]2(C)[C@@H](CC[C@@H]3[C@@H]2CC[C@]2(C)[C@@H](O)CC[C@@H]32)C[C@@H]1O | 0 | 1.8 |
| C[C@]12C[C@H](N3CCNCC3)[C@@H](O)C[C@@H]1CC[C@@H]1[C@@H]2CC[C@]2(C)[C@@H](O)CC[C@@H]12 | 6.9 | 5.9 |
| CC(=O)N1CCN([C@H]2C[C@@]3(C)[C@@H](CC[C@@H]4[C@@H]3CC[C@]3(C)[C@@H](O)CC[C@@H]43)C[C@@H]2O)CC1 | 0 | 0 |
| C[C@]12C[C@H](N3CCN(C(=O)C4CCCCC4)CC3)[C@@H](O)C[C@@H]1CC[C@@H]1[C@@H]2CC[C@]2(C)[C@@H](O)CC[C@@H]12 | 0 | 3.9 |
| CCCCOCCCN[C@H]1C[C@@]2(C)[C@@H](CC[C@@H]3[C@@H]2CC[C@]2(C)[C@@H](O)CC[C@@H]32)C[C@@H]1O | 4.8 | 26.5 |
| C[C@]12C[C@H](N3CCN(C(=O)c4ccccc4)CC3)[C@@H](O)C[C@@H]1CC[C@@H]1[C@@H]2CC[C@]2(C)[C@@H](O)CC[C@@H]12 | 0 | 11.4 |
| CCCC(=O)N1CCN([C@H]2C[C@@]3(C)[C@@H](CC[C@@H]4[C@@H]3CC[C@]3(C)[C@@H](O)CC[C@@H]43)C[C@@H]2O)CC1 | 0 | 4.6 |
| CCC(=O)N1CCN([C@H]2C[C@@]3(C)[C@@H](CC[C@@H]4[C@@H]3CC[C@]3(C)[C@@H](O)CC[C@@H]43)C[C@@H]2O)CC1 | 0 | 0 |
| CCCCC(=O)N1CCN([C@H]2C[C@@]3(C)[C@@H](CC[C@@H]4[C@@H]3CC[C@]3(C)[C@@H](O)CC[C@@H]43)C[C@@H]2O)CC1 | 0 | 7.4 |

| Compound | inhibition at 1 µM [1] [%] | inhibition at 10 µM [2] [%] |
| --- | --- | --- |
| CCCCCCCN[C@H]1C[C@@]2(C)[C@@H](CC[C@@H]3[C@@H]2CC[C@]2(C)[C@@H](O)CC[C@@H]32)C[C@@H]1O | 10.1 | 82.3 |
| CCCN1CCN([C@H]2C[C@@]3(C)[C@@H](CC[C@@H]4[C@@H]3CC[C@]3(C)[C@@H](O)CC[C@@H]43)C[C@@H]2O)CC1 | 0 | 0 |
| CN1CCN([C@H]2C[C@@]3(C)[C@@H](CC[C@@H]4[C@@H]3CC[C@]3(C)[C@@H](O)CC[C@@H]43)C[C@@H]2O)CC1 | 0 | 16.2 |
| CCCCCCN[C@H]1C[C@@]2(C)[C@@H](CC[C@@H]3[C@@H]2CC[C@]2(C)[C@@H](O)CC[C@@H]32)C[C@@H]1O | 0 | 6.9 |
| CCCCN1CCN([C@H]2C[C@@]3(C)[C@@H](CC[C@@H]4[C@@H]3CC[C@]3(C)[C@@H](O)CC[C@@H]43)C[C@@H]2O)CC1 | 0 | 7.6 |
| CCCCCCCCCN[C@H]1C[C@@]2(C)[C@@H](CC[C@@H]3[C@@H]2CC[C@]2(C)[C@@H](O)CC[C@@H]32)C[C@@H]1O | 3.9 | 89.9 |
| CCCN[C@H]1C[C@@]2(C)[C@@H](CC[C@@H]3[C@@H]2CC[C@]2(C)[C@@H](O)CC[C@@H]32)C[C@@H]1O | 0 | 0.4 |
| C[C@]12C[C@H](NCCCc3ccccc3)[C@@H](O)C[C@@H]1CC[C@@H]1[C@@H]2CC[C@]2(C)[C@@H](O)CC[C@@H]12 | 0.9 | 37.6 |
| CCN(CC)[C@H]1C[C@@]2(C)[C@@H](CC[C@@H]3[C@@H]2CC[C@]2(C)[C@@H](O)CC[C@@H]32)C[C@@H]1O | 0 | 6.7 |
| CCCCCCCCCCCN(CCCCCCCCCCC)[C@H]1C[C@@]2(C)[C@@H](CC[C@@H]3[C@@H]2CC[C@]2(C)[C@@H](O)CC[C@@H]32)C[C@@H]1O | 11.7 | 7 |
| CCCCCCCCCN(CCCCCCCCC)[C@H]1C[C@@]2(C)[C@@H](CC[C@@H]3[C@@H]2CC[C@]2(C)[C@@H](O)CC[C@@H]32)C[C@@H]1O | 9.8 | 41.5 |
| CCCCCCCCC(=O)N1CCN([C@H]2C[C@@]3(C)[C@@H](CC[C@@H]4[C@@H]3CC[C@]3(C)[C@@H](O)CC[C@@H]43)C[C@@H]2O)CC1 | 8.1 | 99 |
| C[C@]12C[C@H](NCCc3ccccc3)[C@@H](O)C[C@@H]1CC[C@@H]1[C@@H]2CC[C@]2(C)[C@@H](O)CC[C@@H]12 | 9.5 | 42.8 |
| CC(C)CCN[C@H]1C[C@@]2(C)[C@@H](CC[C@@H]3[C@@H]2CC[C@]2(C)[C@@H](O)CC[C@@H]32)C[C@@H]1O | 0 | 3 |
| CCCCCCCCCCCCN[C@H]1C[C@@]2(C)[C@@H](CC[C@@H]3[C@@H]2CC[C@]2(C)[C@@H](O)CC[C@@H]32)C[C@@H]1O | 0 | 92 |
| C[C@]12C[C@H](N3CCC(N4CCCCC4)CC3)[C@@H](O)C[C@@H]1CC[C@@H]1[C@@H]2CC[C@]2(C)[C@@H](O)CC[C@@H]12 | 0 | 77.8 |
| CCOCCCN[C@H]1C[C@@]2(C)[C@@H](CC[C@@H]3[C@@H]2CC[C@]2(C)[C@@H](O)CC[C@@H]32)C[C@@H]1O | 0 | 10.8 |
| CC(C)CC(=O)N1CCN([C@H]2C[C@@]3(C)[C@@H](CC[C@@H]4[C@@H]3CC[C@]3(C)[C@@H](O)CC[C@@H]43)C[C@@H]2O)CC1 | 0 | 5.5 |
| C[C@]12C[C@H](NC3CCCCCC3)[C@@H](O)C[C@@H]1CC[C@@H]1[C@@H]2CC[C@]2(C)[C@@H](O)CC[C@@H]12 | 0 | 0 |
| CC(C)CN1CCN([C@H]2C[C@@]3(C)[C@@H](CC[C@@H]4[C@@H]3CC[C@]3(C)[C@@H](O)CC[C@@H]43)C[C@@H]2O)CC1 | 0 | 5 |
| CCCCCCCCCCN[C@H]1C[C@@]2(C)[C@@H](CC[C@@H]3[C@@H]2CC[C@]2(C)[C@@H](O)CC[C@@H]32)C[C@@H]1O | 0 | 96.9 |
| CC(C)C(=O)N1CCN([C@H]2C[C@@]3(C)[C@@H](CC[C@@H]4[C@@H]3CC[C@]3(C)[C@@H](O)CC[C@@H]43)C[C@@H]2O)CC1 | 0 | 1.1 |
| C[C@]12C[C@H](N3CCN(Cc4ccccc4)CC3)[C@@H](O)C[C@@H]1CC[C@@H]1[C@@H]2CC[C@]2(C)[C@@H](O)CC[C@@H]12 | 0 | 25.7 |
